Measured values as given in patent US20230000852A1, “Treatment of Dermal Cytokine Storm Syndromes” (Bridge Pharma, Inc., priority 2021, published 2023).
Where two headings read alike, the source gives them in different places.

How the values were obtained:
IL-6 = test: PHA-induced IL-6 release from human leucocytes (buffy coats); format: cell-based; details: Leucocyte, 30 min pre-incubation, PHA 5 μg/ml 16 hours
Protocol: The objective of this study was to assess the ability of norketotifen to inhibit cytokine release from stimulated human leucocytes.
The study was conducted in two phases. The first phase included optimization of the test methodology and including dose-range finding studies, using buffy coats from 3 human donors, stimulated with phytohemagglutinin (PHA). Following optimization of the test conditions, a final protocol was issued. In the ensuing Main Study, white blood cells (buffy coats) from 5 healthy human donors were stimulated with PHA, 5 μg/ml. The concentrations of the test article and the duration of exposure were optimized to obtain acceptable dose-response ratios. Thus, the inhibitory effects of three concentrations of NK and one concentration of ketotifen were evaluated in the Main Study. The buffy coats containing white blood cells from 5 male human donors were resuspended in assay media and were pre-incubated for 30 min with either vehicle/saline, ketotifen 4.3 μg/ml (10 μM) and norketotifen 0.4 μg/ml, 4.1 μg/ml and 41 μg/ml (1.0; 10 and 100 μM). Following these preincubations, the white blood cells were stimulated for 16 hours with PHA, 5 μg/ml. The cell system supernatants were then harvested and stored frozen pending analyses.
The concentration of the test articles had to be high in this ex vivo study since the test kit used a high concentration of the agonist PHA (5 μg/ml) and a long exposure time (16 hrs).

sedation = details: humans, oral; U.S. Pat. Nos. 9,138,431 and 9,345,697; cited from earlier work
[1] = Dermal and plasma concentrations of NK after oral dosing to dogs; format: in vivo
Protocol: The purpose was to determine drug concentrations and calculate pharmacokinetics in the skin and plasma of dogs during and following daily oral administration of S-NK-HF (the S-isomer of norketotifen hydrogen fumarate) for four weeks.
Five male beagle dogs, weighing 11.2-13.9 kg (2-4 years old) were included in the study. All animals were administered p.o. doses of the test article 8.0 mg/kg/day as a hydrogen fumarate salt, equal to 5.6 mg/kg/day of the free base. A single isomer of NK was used, since an objective of this study was also to assess the racemization of the NK isomers. The animals were dosed once daily for four weeks followed by daily observations and tissue sampling for an additional two-week washout period.
Multiple plasma samples and skin biopsies were taken from each dog on Day 1 and Day 28 of drug administration. The plasma and skin samplings were performed at pre-dose, and at 2, 6, 12, and 24 hours post-dose. Plasma and skin samples were also taken intermittently at predetermined intervals during the 28-days dosing period and up to the last day of the study, which was Day 42. Blood samples were taken from v. cephalica antebrachii. Skin biopsies were taken from the area between the mid ventral to lateral abdominal areas, using a 6 mm skin biopsy punch. Subcutaneous fat deposits were carefully trimmed from the skin samples and the skin samples were then weighed. All plasma and skin samples were analyzed using LC/MS/MS methodology.

For `O=C1Cc2ccccc2C(=C2CCNCC2)c2ccsc21` (racemic) [NK, norketotifen], which inhibition at 1 µM (IL-6; 1 uM) is on record?
The inhibition at 1 µM was 0%.

What about the inhibition at 10 µM (IL-6; 10 uM) of the same compound?
Its inhibition at 10 µM is 33.1%.

What about the inhibition at 100 µM (IL-6; 100 uM) of the same compound?
Its inhibition at 100 µM is 88.2%.

And the Sedative side effects (sedation)?
The Sedative side effects was “free from sedative side effects”.

What about the half-life ([1]; male, beagle, dog, plasma, oral, 8 mg/kg/day, plasma, read-out: Plasma half-life) of the same compound?
The half-life was 10 to 11 h.

And the half-life ([1]; male, beagle, dog, plasma, po, 8 mg/kg/day, oral S-NK 8.0 mg/kg/day for 28 days, dogs (N = 5), plasma, read-out: T1/2 Plasma (converted))?
The half-life was 10.5 h.

And the half-life ([1]; male, beagle, dog, skin, oral, 8 mg/kg/day, skin, read-out: Dermal half-life (duration of high concentration in the skin))?
The half-life was no more than 168 h.

What about the Kp ([1]; male, beagle, dog, skin, oral, 8 mg/kg/day, under laboratory conditions, read-out: Skin concentration relative to plasma concentration) of the same compound?
The Kp was no more than 16.

And the half-life ([1]; male, beagle, dog, skin, po, 8 mg/kg/day, oral S-NK 8.0 mg/kg/day for 28 days, dogs (N = 5), skin, read-out: T1/2 Skin (converted))?
The half-life was 168 h.

What about the MRT ([1]; male, beagle, dog, oral S-NK 8.0 mg/kg/day for 28 days, dogs (N = 5), plasma, read-out: MRT Plasma) of the same compound?
The MRT was 12.8 h.

And the MRT ([1]; male, beagle, dog, oral S-NK 8.0 mg/kg/day for 28 days, dogs (N = 5), skin, read-out: MRT Skin)?
Its MRT is 169 h.

What about the “AUC∞ Plasma” value ([1]; oral S-NK 8.0 mg/kg/day for 28 days, dogs (N = 5), plasma) of the same compound?
Its value is 3286 ng*hr/mL or g.

And the “AUC∞ Skin” value ([1]; oral S-NK 8.0 mg/kg/day for 28 days, dogs (N = 5), skin)?
The value was 54187 ng*hr/mL or g.

What about the “Dermal half-life in skin of dogs (in words)” value ([1]; skin of dogs) of the same compound?
The value was “one week”.
